From patent US20110136745A1, “METHOD OF SELECTING SOYBEANS WITH ENHANCED BIOACTIVITY AND COMPOSITIONS FOR REDUCING CANCER CELL VIABILITY” (Monsanto Technology LLC., priority 2008, published 2011)

System: L1210 leukemia cells
Assay: Cytotoxicity assay on L1210 leukemia cells (Cell Counting Kit-8)
Settings: positive control at 1.0 μM

In the case of COc1cc([C@@H]2c3cc4c(cc3[C@@H](O[C@@H]3O[C@@H]5CO[C@@H](C)O[C@H]5[C@H](O)[C@H]3O)[C@H]3COC(=O)[C@H]23)OCO4)cc(OC)c1O [etoposide, Etoposide], the “inhibition of L1210 leukemia cell growth” value is reported as 90.5%.
